Laboratory results: US9408854B2, “Methods and systems for pharmacogenomic treatment of cardiovascular conditions” (ROSTAQUO S.P.A., priority 2009, dated 2016)

System: hypertensive patients
Assay: Pharmacogenomic study: change of office systolic blood pressure (DSBP5_0) after 5 weeks of rostafuroxin vs placebo, by genotype
Format: in vivo, human
Conditions: for response (average blood pressure change): individuals carrying all core SNPs; for Delta DSBP5_0: therapy vs placebo
Protocol: A pharmacogenomic study was performed to ascertain the effect of genetic variations on an individual response to rostafuroxin. The sample for the pharmacogenomic study consisted of 342 individuals that were genotyped with the Human1M array from Illumina using Human1M Duo CHIP genotyping Bead Chip according to procedure described in [Ref. 10, 11, 12]. Among the individuals, 169 were administered the placebo treatment and 173 the active drug (rostafuroxin) in the first period (5 weeks) with demographics as in [Ref 13]. In particular, patients were randomized to one of the following oral doses of rostafuroxin: 0.05, 0.15, 0.5, 1.5, or 5 mg/day for 5 weeks. Each dose had to be compared to a placebo in a crossover design.
For the above sample of individuals a genetic association analysis, was performed to associate the phenotype of the tested individuals with the SNPs detected in the individuals. The selected phenotype of interest was the blood pressure response. The SNPs selected for detection were the 1111170 SNPs on autosomal chromosomes of the individual.
The genetic analysis was performed according to a quantitative genetic association design where the phenotype of interest is a quantitative variable (QT), and the variables (factors) affecting the distribution of the phenotype of interest are SNPs, therapy (placebo, rostafuroxin) and the SNP*therapy interaction.
In particular, the quantitative phenotype selected for the statistical analyses was the difference in mmHg between the office Systolic Blood Pressure (SBP) at the end of first treatment period (SBP_5) and the office Systolic Blood Pressure at baseline after one month of run-in (SBP_0) and is herein also identified as DSBP5_0. The selected QT phenotype and other factors affecting distribution of the phenotype of interest were then analyzed according to the following quantitative trait interaction test Phenotype=SNP+therapy+SNP*therapy as illustrated in further details below.
In particular, in Table 2 the descriptive statistics of DSBP5_0 for the entire sample and for the patients treated with placebo and rostafuroxin are listed. The rather modest basal level of SBP can be explained in view of the recruitment of patients with “mild” hypertension (SBP range 140-179 mmHg), required by the inclusion of a placebo arm.
Those SNPs were further selected to identify the genotypes with the largest response to rostafuroxin compared to placebo by performing a Statistical ANOVA analysis using STATA software in placebo and rostafuroxin with DSBP5_0 as dependent variable and the candidate significant SNPs as independent variables. In particular, to select the genotypes of the interactions between two SNPs with the largest response to rostafuroxin compared to placebo, the Applicants performed an ANOVA statistics in placebo and rostafuroxin with DSBP5_0 as dependent variable and the interaction s between SNPs as independent variables. The Applicants report an example of this procedure in FIG. 5: interaction between rs8899 and rs4678. The Applicants selected the interaction between the genotype AA of rs8899 and the genotype BB of rs4678 because it presents the greatest remarkable decrement in the therapy group and not in the placebo group.
In particular, to select the genotypes with the largest response to rostafuroxin compared to placebo, the Applicants performed an ANOVA statistics (oneway) in placebo and rostafuroxin with DSBP5_0 as dependent variable and the significant SNPs as independent variables.

[1] = GWS SNP rs9361863 (LOC728360) genotype 2
[2] = GWS SNP rs9893372 (ATP2A3) genotype 3
[3] = GWS SNP rs10159569 (SH3PXD2A) genotype 1
[4] = GWS SNP rs10493940 (SLC30A7) genotype 2
[5] = GWS SNP rs10493940 (SLC30A7) genotype 3
[6] = GWS SNP rs12513375 (TTC29) genotype 3
[7] = GWS SNP rs12996186 (ARL5A) genotype 2
[8] = GWS SNP rs16877182 (THSD7A) genotype 2
[9] = GWS SNP rs16893522 (FAM46A) genotype 1
[10] = GWS SNP rs16893522 (FAM46A) genotype 2
[11] = GWS SNP rs17414954 (VCAM1) genotype 2
[12] = individuals carrying the genetic variations
[13] = interaction ADD2 rs4984 CC x TOP rs10502933 CT
[14] = interaction HSD19 rs947130 GG x NEDD4L rs4309483 AA
[15] = interaction HSD19 rs947130 GG x NKAIN3 rs4739037 GA
[16] = interaction LSS2 rs914247 AA x ADD1 rs4961 GT + TT
[17] = interaction LSS2 rs914247 AA x WNK1 rs880054 AG + GG
[18] = interaction LSS2 rs914247 GA + AA x MDR2 rs1045642 CC
[19] = interaction MDR2 rs1045642 TT x AGTR1 rs2131127 CC
[20] = interaction MDR2 rs1045642 TT x HSD18 rs10923835 AT + TT

C[C@]12CC[C@H](O)C[C@H]1CC[C@@H]1[C@@H]2CC[C@]2(C)[C@@](O)(c3ccoc3)CC[C@]12O [rostafuroxin, 17β-(3-furyl)-5β-androstane-3β,14β,17α-triol]
DSBP5_0 therapy (GWS SNP rs9361863 (LOC728360) genotype 1): −15 mmHg | DELTA delta Therapy placebo [1]: 8.833 mmHg | DSBP5_0 therapy [1]: −13.48 mmHg | DELTA delta Therapy placebo [2]: 4.434 mmHg | DSBP5_0 therapy [2]: −10.91 mmHg | DELTA delta Therapy placebo [3]: 10.63 mmHg | DSBP5_0 therapy [3]: −13.17 mmHg | DELTA delta Therapy placebo [4]: 5.95 mmHg | DSBP5_0 therapy [4]: −12.13 mmHg | DELTA delta Therapy placebo [5]: 28.95 mmHg | DSBP5_0 therapy [5]: −25 mmHg | DELTA delta Therapy placebo [6]: 15.93 mmHg | DSBP5_0 therapy [6]: −19.18 mmHg | DELTA delta Therapy placebo [7]: 17.96 mmHg | DSBP5_0 therapy [7]: −22.79 mmHg | DELTA delta Therapy placebo [8]: 18.85 mmHg | DSBP5_0 therapy [8]: −21.67 mmHg | DELTA delta Therapy placebo [9]: 27.03 mmHg | DSBP5_0 therapy [9]: −22.43 mmHg | DELTA delta Therapy placebo [10]: 2.874 mmHg | DSBP5_0 therapy [10]: −1.138 mmHg | DELTA delta Therapy placebo [11]: 7.158 mmHg | DSBP5_0 therapy [11]: −13.03 mmHg | Mean fall in blood pressure mmHg (DSBP5_0) (all never previously treated (NPT) patients on therapy (99 IDs), 5 weeks, no genotype selection): −5.831 mmHg | DSBP5_0 therapy (carriers rs914247 (LSS2) AA (CAND 1 SNP)): −17 mmHg | DSBP5_0 therapy (carriers rs2345088 TT (Illumina genotype 1), NPT patients, 5 weeks): −30.5 mmHg | DSBP5_0 therapy (carriers rs2461911 AA (Illumina genotype 1), NPT patients, 5 weeks): −20.6 mmHg | DSBP5_0 therapy (carriers rs5013093 TT (Illumina genotype 1), NPT patients, 5 weeks): −20.49 mmHg | DSBP5_0 therapy (carriers rs12513375 TT (Illumina genotype 3), NPT patients, 5 weeks): −19.18 mmHg | DSBP5_0 therapy (carriers rs16877182 C/T (Illumina genotype 2), NPT patients, 5 weeks): −21.67 mmHg | DSBP5_0 therapy (carriers rs16893522 AA (Illumina genotype 1), NPT patients, 5 weeks): −22.43 mmHg | response (average blood pressure change) (high dosages): −15 mmHg | average decrease in systolic blood pressure (high doses (1.5; 5.0 mg/day), individuals carrying the genetic variations): −12 mmHg | average decrease in nightly blood pressure [12]: ≥ 9 mmHg | average decrease in office blood pressure [12]: at least 15 mmHg | DSBP50 ROSTAFUROXIN [13]: .−19.21 mmHg | Delta Rosta_placebo [13]: 24.73 mmHg | DSBP50 ROSTAFUROXIN [14]: .−17.85 mmHg | Delta Rosta_placebo [14]: 28.15 mmHg | DSBP50 ROSTAFUROXIN [15]: .−18.18 mmHg | Delta Rosta_placebo [15]: 15.72 mmHg | DSBP50 ROSTAFUROXIN [16]: .−22.32 mmHg | Delta Rosta_placebo [16]: 27.49 mmHg | DSBP50 ROSTAFUROXIN [17]: .−16 mmHg | Delta Rosta_placebo [17]: 16.48 mmHg | DSBP50 ROSTAFUROXIN [18]: .−16.91 mmHg | Delta Rosta_placebo [18]: 12.96 mmHg | DSBP50 ROSTAFUROXIN [19]: .−16.9 mmHg | Delta Rosta_placebo [19]: 14.34 mmHg | DSBP50 ROSTAFUROXIN [20]: .−17.40 mmHg | Delta Rosta_placebo [20]: 17.30 mmHg | response (average blood pressure change) (low dosages): −23 mmHg | average decrease in systolic blood pressure (lower doses (0.05; 0.15; 0.5 mg/day), individuals carrying the genetic variations): approximately 18 mmHg | Delta DSBP5_0 (carriers rs2345088 TT (genotype 1)): 33.93, mmHg | Delta DSBP5_0 (carriers rs2461911 AA (genotype 1)): 22.82, mmHg | Delta DSBP5_0 (carriers rs5013093 TT (genotype 1)): 22.09, mmHg | Delta DSBP5_0 (carriers rs12513375 TT (genotype 3)): 15.93, mmHg | Delta DSBP5_0 (carriers rs16877182 C/T (genotype 2)): 18.85, mmHg | Delta DSBP5_0 (carriers rs16893522 AA (genotype 1)): 27.03, mmHg | tolerability and quality of life (treated individuals, trial results): good tolerability and quality of life
